Laboratory results taken from patent publication US9353082B2, “Pharmaceutical compounds” (BIAL—PORTELA & CA, S.A., priority 2008, dated 2016).

Experiments:
FAAH [1] = target: T1, FAAH (Rattus norvegicus, UniProt P97612); assay: In vitro FAAH activity in rat brain membranes, 3H-AEA substrate, % of control; format: biochemical, Wistar rats; settings: low value = strong inhibitor; for In Vitro 100 nM (FAAH activity, % of control): rat brain membranes, compound at 100 nM; for In Vitro FAAH activity, 100 nM: 100 nM test compound; for In Vitro FAAH activity, 10 uM: 10 uM test compound
T1 construct: Frozen brains (without cerebellum) from Wistar rats were used; from tissue; host or cells: Wistar rat brain (without cerebellum), washed membrane pellets
T1 sequence (P97612 1-579): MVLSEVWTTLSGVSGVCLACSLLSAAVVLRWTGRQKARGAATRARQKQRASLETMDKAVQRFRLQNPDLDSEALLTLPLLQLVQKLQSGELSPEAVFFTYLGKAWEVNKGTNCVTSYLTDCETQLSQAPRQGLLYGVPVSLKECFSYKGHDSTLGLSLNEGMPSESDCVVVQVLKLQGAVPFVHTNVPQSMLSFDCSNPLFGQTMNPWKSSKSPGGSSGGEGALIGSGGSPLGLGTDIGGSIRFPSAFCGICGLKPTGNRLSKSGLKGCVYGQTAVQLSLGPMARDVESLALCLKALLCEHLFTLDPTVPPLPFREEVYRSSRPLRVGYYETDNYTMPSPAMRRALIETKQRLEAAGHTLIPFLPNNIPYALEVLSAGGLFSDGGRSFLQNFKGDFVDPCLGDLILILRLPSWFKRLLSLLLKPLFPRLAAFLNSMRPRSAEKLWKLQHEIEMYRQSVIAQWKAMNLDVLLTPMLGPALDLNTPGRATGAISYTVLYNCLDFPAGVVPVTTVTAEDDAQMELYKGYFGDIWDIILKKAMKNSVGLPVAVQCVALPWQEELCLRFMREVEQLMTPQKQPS
How it was run: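 FAAH activity measured as 3H-ethanolamine released from 2 μM [3H]AEA over 10 min by rat brain membrane preparation, after 15 min 37 °C preincubation with test compound at 10 or 0.1 μM. Charcoal-separated supernatant scintillation-counted; values expressed as % of control minus no-protein blank.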

FAAH [2] = target: T2, FAAH (Mus musculus, UniProt O08914); assay: In vivo FAAH inhibition after oral dosing, remaining activity in liver homogenate (LVh, peripheral tissue); parameters: species or system NMRI mice; settings: liver homogenate; for In Vivo LVh 3 mg·kg 8 h (remaining FAAH activity, % of control): 8 h after dosing, low value = strong inhibitor
T2 construct: A fragment of liver, left lung lobe and brain without cerebellum were removed; from tissue; host or cells: male NMRI mice; brain (without cerebellum) and liver homogenates
T2 sequence (O08914 1-579): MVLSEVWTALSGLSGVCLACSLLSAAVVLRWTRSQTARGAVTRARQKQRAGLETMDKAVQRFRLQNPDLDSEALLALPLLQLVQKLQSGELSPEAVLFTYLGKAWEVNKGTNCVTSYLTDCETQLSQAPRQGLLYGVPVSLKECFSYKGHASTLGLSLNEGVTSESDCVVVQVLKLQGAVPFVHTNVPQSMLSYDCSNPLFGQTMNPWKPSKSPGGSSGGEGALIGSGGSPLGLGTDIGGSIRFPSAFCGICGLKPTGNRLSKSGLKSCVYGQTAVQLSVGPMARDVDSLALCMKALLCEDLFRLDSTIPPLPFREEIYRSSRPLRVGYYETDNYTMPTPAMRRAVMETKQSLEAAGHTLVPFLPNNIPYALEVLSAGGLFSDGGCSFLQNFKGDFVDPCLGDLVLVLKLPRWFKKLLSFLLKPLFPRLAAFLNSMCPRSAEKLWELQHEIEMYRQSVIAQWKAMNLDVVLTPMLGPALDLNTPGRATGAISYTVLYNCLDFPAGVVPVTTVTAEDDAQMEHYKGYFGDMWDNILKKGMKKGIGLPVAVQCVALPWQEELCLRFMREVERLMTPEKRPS
How it was run: (§1)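 Remaining FAAH activity is given as % of vehicle-treated controls after blank subtraction, measured by radiolabelled AEA hydrolysis (2 μM AEA, 5 nM 3H-AEA, 37 °C) in brain (10 min) or liver (7 min) homogenates. These came from fasted male NMRI mice dosed orally at 30 or 3 mg/kg.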

FAAH [3] = target: T2, FAAH; assay: In vivo FAAH inhibition after oral dosing, remaining activity in brain homogenate (BRh, central nervous tissue); parameters: species or system NMRI mice; settings: brain homogenate; for In Vivo BRh 3 mg·kg 8 h (remaining FAAH activity, % of control): 8 h after dosing, low value = strong inhibitor
How it was run: as §1

## CN(C(=O)n1cnc(-c2ccc(F)c(O)c2)c1)C1CCCC1 [Compound 344, N-cyclopentyl-4-(4-fluoro-3-hydroxyphenyl)-N-methyl-1H-imidazole-1-carboxamide]
FAAH [1]
  In Vitro 100 nM (FAAH activity, % of control): 1.7 % of control
FAAH [2]
  In Vivo LVh 3 mg·kg 8 h (remaining FAAH activity, % of control): 2.1 % of control
FAAH [3]
  In Vivo BRh 3 mg·kg 8 h (remaining FAAH activity, % of control): 121.1 % of control

## CC1(C)COCN1C(=O)n1cnc(-c2ccc(Cl)cc2)c1 [Compound 186, (4-(4-chlorophenyl)-1H-imidazol-1-yl)(4,4-dimethyloxazolidin-3-yl)methanone]
FAAH [1]
  In Vitro FAAH activity, 100 nM: 96.5 % of control
FAAH [2]
  In Vivo LVh 3 mg/kg 8 h, remaining FAAH activity: 37.7 % of control
FAAH [3]
  In Vivo BRh 3 mg/kg 8 h, remaining FAAH activity: 78.7 % of control

## O=C(N1CCN(c2ccccc2)CC1)n1cnc(Cc2ccccc2)n1 [Compound 182, (3-benzyl-1H-1,2,4-triazol-1-yl)(4-phenylpiperazin-1-yl)methanone]
FAAH [1]
  In Vitro FAAH activity, 100 nM: 0.6 % of control
FAAH [2]
  In Vivo LVh 3 mg/kg 8 h, remaining FAAH activity: 111 % of control
FAAH [3]
  In Vivo BRh 3 mg/kg 8 h, remaining FAAH activity: 90.6 % of control

## O=C(NCc1ccccc1)n1nnc2ccccc21 [Compound 61, N-benzyl-1H-benzo[d][1,2,3]triazole-1-carboxamide]
FAAH [1]
  In Vitro FAAH activity, 100 nM: 2.2 % of control
FAAH [2]
  In Vivo LVh 30 mg/kg 1 h, remaining FAAH activity: 83.9 % of control
FAAH [3]
  In Vivo BRh 30 mg/kg 1 h, remaining FAAH activity: 87.5 % of control

## CN(C(=O)n1cnc(-c2ccc(F)cc2)c1)c1ccccc1 [Compound 29, 4-(4-fluorophenyl)-N-methyl-N-phenyl-1H-imidazole-1-carboxamide]
FAAH [1]
  In Vitro FAAH activity, 100 nM: 52.5 % of control
  In Vitro FAAH activity, 10 uM: 0 % of control
FAAH [2]
  In Vivo LVh 30 mg/kg 1 h, remaining FAAH activity: 17.2 % of control
FAAH [3]
  In Vivo BRh 30 mg/kg 1 h, remaining FAAH activity: 10.7 % of control

## CN(C(=O)n1cnc(-c2ccc(O)c(F)c2)c1)C1CCCC1 [Compound 331, N-cyclopentyl-4-(3-fluoro-4-hydroxyphenyl)-N-methyl-1H-imidazole-1-carboxamide]
FAAH [1]
  In Vitro 100 nM (FAAH activity, % of control): 3.6 % of control
FAAH [2]
  In Vivo LVh 3 mg·kg 8 h (remaining FAAH activity, % of control): 4.9 % of control
FAAH [3]
  In Vivo BRh 3 mg·kg 8 h (remaining FAAH activity, % of control): 4 % of control

## CN(C(=O)n1cnc(-c2cccc(-c3cccc(O)c3)c2)c1)C1CCCCC1 [Compound 247, N-cyclohexyl-4-(3′-hydroxybiphenyl-3-yl)-N-methyl-1H-imidazole-1-carboxamide]
FAAH [1]
  In Vitro FAAH activity, 100 nM: 0.5 % of control
FAAH [2]
  In Vivo LVh 3 mg/kg 8 h, remaining FAAH activity: 85.5 % of control
FAAH [3]
  In Vivo BRh 3 mg/kg 8 h, remaining FAAH activity: 131.7 % of control

## O=C(N1CCS(=O)(=O)C1)n1nnc2ccccc21 [Compound 167, 1-[(1,1-dioxido-1,3-thiazolidin-3-yl)carbonyl]-1H-benzotriazole]
FAAH [1]
  In Vitro FAAH activity, 100 nM: 96.2 % of control
FAAH [2]
  In Vivo LVh 3 mg/kg 8 h, remaining FAAH activity: 104 % of control
FAAH [3]
  In Vivo BRh 3 mg/kg 8 h, remaining FAAH activity: 99.9 % of control

## Cc1c(-c2ccccc2)ncn1C(=O)N(C)Cc1ccccc1 [Compound 264, N-benzyl-N,5-dimethyl-4-phenyl-1H-imidazole-1-carboxamide]
FAAH [1]
  In Vitro FAAH activity, 100 nM: 88 % of control
FAAH [2]
  In Vivo LVh 3 mg/kg 8 h, remaining FAAH activity: 76.6 % of control
FAAH [3]
  In Vivo BRh 3 mg/kg 8 h, remaining FAAH activity: 115 % of control

## CN(C(=O)n1cnc(-c2cccc(-c3ccccc3)c2)c1)C1CCCCC1 [Compound 239, 4-(biphenyl-3-yl)-N-cyclohexyl-N-methyl-1H-imidazole-1-carboxamide]
FAAH [1]
  In Vitro FAAH activity, 100 nM: 4 % of control
FAAH [2]
  In Vivo LVh 3 mg/kg 8 h, remaining FAAH activity: 4.6 % of control
FAAH [3]
  In Vivo BRh 3 mg/kg 8 h, remaining FAAH activity: 16.4 % of control

## CN(C(=O)n1cnc2ccccc21)C1CCCCC1 [Compound 222, N-cyclohexyl-N-methyl-1H-benzo[d]imidazole-1-carboxamide]
FAAH [1]
  In Vitro FAAH activity, 100 nM: 102.9 % of control
FAAH [2]
  In Vivo LVh 3 mg/kg 8 h, remaining FAAH activity: 59.2 % of control
FAAH [3]
  In Vivo BRh 3 mg/kg 8 h, remaining FAAH activity: 111.5 % of control

## CCCCN(C)C(=O)n1nnc2ccccc21 [Compound 75, N-butyl-N-methyl-1H-benzo[d][1,2,3]triazole-1-carboxamide]
FAAH [1]
  In Vitro FAAH activity, 100 nM: 0 % of control
FAAH [2]
  In Vivo LVh 30 mg/kg 1 h, remaining FAAH activity: 2.7 % of control
FAAH [3]
  In Vivo BRh 30 mg/kg 1 h, remaining FAAH activity: 0.4 % of control

## CN(C(=O)n1cnc(-c2ccccc2)c1)C1CCN(Cc2ccccc2)CC1 [Compound 282, N-(1-benzylpiperidin-4-yl)-N-methyl-4-phenyl-1H-imidazole-1-carboxamide]
FAAH [1]
  In Vitro 100 nM (FAAH activity, % of control): 40.9 % of control
FAAH [2]
  In Vivo LVh 3 mg·kg 8 h (remaining FAAH activity, % of control): 1.6 % of control
FAAH [3]
  In Vivo BRh 3 mg·kg 8 h (remaining FAAH activity, % of control): 0.5 % of control

## CN(C(=O)n1cnc(-c2ccc(O)c(N)c2)c1)C1CCCCC1.Cl [Compound no. 357, 4-(3-amino-4-hydroxyphenyl)-N-cyclohexyl-N-methyl-1H-imidazole-1-carboxamide hydrochloride]
FAAH [1]
  In Vitro 100 nM (FAAH activity, % of control): 93.9 % of control
FAAH [2]
  In Vivo LVh 3 mg·kg 8 h (remaining FAAH activity, % of control): 10.4 % of control
FAAH [3]
  In Vivo BRh 3 mg·kg 8 h (remaining FAAH activity, % of control): 111.9 % of control

## NC(=O)c1ccc(Oc2ccc(-c3ncn(C(=O)N4CCN(c5ccccc5)CC4)n3)cc2)cc1 [Compound 148, 4-(4-(1-(4-phenylpiperazine-1-carbonyl)-1H-1,2,4-triazol-3-yl)phenoxy)benzamide]
FAAH [1]
  In Vitro FAAH activity, 100 nM: 0.3 % of control
FAAH [2]
  In Vivo LVh 3 mg/kg 8 h, remaining FAAH activity: 87.6 % of control
FAAH [3]
  In Vivo BRh 3 mg/kg 8 h, remaining FAAH activity: 113.7 % of control

## CN(C(=O)n1cnc(-c2ccc3ccccc3c2)c1)c1ccccc1 [Compound 14, N-methyl-4-(naphthalen-2-yl)-N-phenyl-1H-imidazole-1-carboxamide]
FAAH [1]
  In Vitro FAAH activity, 100 nM: 68.3 % of control
  In Vitro FAAH activity, 10 uM: 0 % of control
FAAH [2]
  In Vivo LVh 30 mg/kg 1 h, remaining FAAH activity: 77.3 % of control
FAAH [3]
  In Vivo BRh 30 mg/kg 1 h, remaining FAAH activity: 96.7 % of control

## Cl.N#Cc1ccc(Oc2ccc(-c3ncn(C(=O)N4CCN(c5ccccc5)CC4)n3)cc2)cc1 [Compound 145, 4-(4-(1-(4-phenylpiperazine-1-carbonyl)-1H-1,2,4-triazol-3-yl)phenoxy)benzonitrile hydrochloride]
FAAH [1]
  In Vitro FAAH activity, 100 nM: 0.3 % of control
FAAH [2]
  In Vivo LVh 3 mg/kg 8 h, remaining FAAH activity: 116.5 % of control
FAAH [3]
  In Vivo BRh 3 mg/kg 8 h, remaining FAAH activity: 89.9 % of control

## CC1(C)COCN1C(=O)n1cnc(-c2ccc(O)cc2)c1 [Compound 260, (4,4-dimethyloxazolidin-3-yl)(4-(4-hydroxyphenyl)-1H-imidazol-1-yl)methanone]
FAAH [1]
  In Vitro FAAH activity, 100 nM: 95.3 % of control
  In Vitro FAAH activity, 10 uM: 37.3 % of control
FAAH [2]
  In Vivo LVh 3 mg/kg 8 h, remaining FAAH activity: 7.8 % of control
FAAH [3]
  In Vivo BRh 3 mg/kg 8 h, remaining FAAH activity: 8.1 % of control
